The test system of this assay is BDF1 mice, Adenocarcinoma 755 s.c., tumor weight T/C. Description: NCI In Vivo Anticancer Drug Screen. Data for tumor model Adenocarcinoma 755 (subcutaneous) in B6D2F1 (BDF1) mice. The note with it: endpoint: mean tumor weight, higher = larger tumour. In outline: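 Tumor-bearing mice receive test compound while controls get vehicle alone. Antitumor effect is scored from survival or tumor dimensions as a T/C quotient.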

The values below come from PubChem BioAssay AID180 (DTP/NCI, 2004).

Structures are written as SMILES. Values joined by “and” are separate entries in the source; they are usually repeats but may differ in a detail not shown here. Equal values may be shown once.

For `c1ccc(CSc2ncnc3nc[nH]c23)cc1`, the T/C (as a rule, the ratio of treated to control) runs as follows: (dose: 1.5 mg/kg/injection, schedule: Q01DX011 (ip), vehicle: alkali diluted with saline) 2 % of control; (dose: 1.5 mg/kg/injection, schedule: Q01DX011 (oral), vehicle: alkali diluted with saline) 22 % of control; (dose: 2.5 mg/kg/injection, schedule: Q01DX011 (ip), vehicle: saline) 35 % of control; (dose: 3.0 mg/kg/injection, schedule: Q01DX011 (ip), vehicle: alkali diluted with saline) 44 % of control; (dose: 3.0 mg/kg/injection, schedule: Q01DX011 (ip), vehicle: carboxymethylcellulose (CMC)) 59 % of control; (dose: 3.0 mg/kg/injection, schedule: Q01DX011 (oral), vehicle: alkali diluted with saline) 28 % of control. In addition, the T/C (dose: 3.1 mg/kg/injection, schedule: Q01DX011 (ip), vehicle: carboxymethylcellulose (CMC)) was 43 % of control; the T/C (dose: 5.0 mg/kg/injection, schedule: Q01DX011 (ip), vehicle: saline) was 12 % of control; the T/C (dose: 6.0 mg/kg/injection, schedule: Q01DX006 (iv), vehicle: saline) was 17 % of control; the T/C (dose: 6.0 mg/kg/injection, schedule: Q01DX011 (im), vehicle: saline) is 12 % of control; the T/C (dose: 6.0 mg/kg/injection, schedule: Q01DX011 (ip), vehicle: alkali diluted with saline) is 16 % of control; the T/C (dose: 6.0 mg/kg/injection, schedule: Q01DX011 (ip), vehicle: carboxymethylcellulose (CMC)) is 22 % of control and 32 % of control. In addition, the T/C (dose: 6.0 mg/kg/injection, schedule: Q01DX011 (ip), vehicle: saline) was 2 % of control; the T/C (dose: 6.0 mg/kg/injection, schedule: Q01DX011 (oral), vehicle: alkali diluted with saline) was 16 % of control; the T/C (dose: 6.0 mg/kg/injection, schedule: Q01DX011 (sc), vehicle: steriod suspending solution) was 9 % of control; the T/C (dose: 6.2 mg/kg/injection, schedule: Q01DX011 (ip), vehicle: carboxymethylcellulose (CMC)) was 15 % of control; the T/C (dose: 10.0 mg/kg/injection, schedule: Q01DX011 (ip), vehicle: saline) was 5 % of control; the T/C (dose: 11.0 mg/kg/injection, schedule: Q07DX002 (ip), vehicle: alkali diluted with saline) is 39 % of control. Moreover, the T/C is 2 % of control (dose: 12.0 mg/kg/injection, schedule: Q01DX006 (iv), vehicle: saline); 3 % of control (dose: 12.0 mg/kg/injection, schedule: Q01DX011 (im), vehicle: saline); 3 % of control (dose: 12.0 mg/kg/injection, schedule: Q01DX011 (ip), vehicle: carboxymethylcellulose (CMC)); 54 % of control (dose: 12.0 mg/kg/injection, schedule: Q01DX011 (oral), vehicle: alkali diluted with saline); 5 % of control (dose: 12.0 mg/kg/injection, schedule: Q01DX011 (sc), vehicle: steriod suspending solution); 3 % of control (dose: 12.5 mg/kg/injection, schedule: Q01DX011 (ip), vehicle: carboxymethylcellulose (CMC)). Moreover, the T/C was 17 % of control (dose: 13.0 mg/kg/injection, schedule: Q01DX011 (ip), vehicle: carboxymethylcellulose (CMC)); 31 % of control (dose: 19.0 mg/kg/injection, schedule: Q03DX004 (ip), vehicle: carboxymethylcellulose (CMC)); 50 % of control (dose: 22.0 mg/kg/injection, schedule: Q07DX002 (ip), vehicle: alkali diluted with saline); 9 % of control (dose: 25.0 mg/kg/injection, schedule: Q01DX006 (iv), vehicle: carboxymethylcellulose (CMC)); 3 % of control (dose: 25.0 mg/kg/injection, schedule: Q01DX006 (iv), vehicle: saline); 1 % of control (dose: 25.0 mg/kg/injection, schedule: Q01DX011 (im), vehicle: saline). Also, the T/C (dose: 25.0 mg/kg/injection, schedule: Q01DX011 (ip), vehicle: saline) is 2 % of control; the T/C (dose: 25.0 mg/kg/injection, schedule: Q01DX011 (oral), vehicle: carboxymethylcellulose (CMC)) was 10 % of control; the T/C (dose: 25.0 mg/kg/injection, schedule: Q01DX011 (sc), vehicle: carboxymethylcellulose (CMC)) is 14 % of control; the T/C (dose: 25.0 mg/kg/injection, schedule: Q01DX011 (sc), vehicle: steriod suspending solution) is 3 % of control; the T/C (dose: 38.0 mg/kg/injection, schedule: Q03DX004 (ip), vehicle: carboxymethylcellulose (CMC)) is 2 % of control; the T/C (dose: 44.0 mg/kg/injection, schedule: Q07DX002 (ip), vehicle: alkali diluted with saline) is 43 % of control. Besides, the T/C runs as follows: (dose: 44.0 mg/kg/injection, schedule: Q07DX002 (ip), vehicle: carboxymethylcellulose (CMC)) 5 % of control; (dose: 50.0 mg/kg/injection, schedule: Q01DX006 (iv), vehicle: carboxymethylcellulose (CMC)) 17 % of control; (dose: 50.0 mg/kg/injection, schedule: Q01DX011 (im), vehicle: carboxymethylcellulose (CMC)) 8 % of control; (dose: 50.0 mg/kg/injection, schedule: Q01DX011 (ip), vehicle: carboxymethylcellulose (CMC)) 3 % of control and 8 % of control; (dose: 50.0 mg/kg/injection, schedule: Q01DX011 (oral), vehicle: carboxymethylcellulose (CMC)) 6 % of control; (dose: 50.0 mg/kg/injection, schedule: Q01DX011 (sc), vehicle: steriod suspending solution) 1 % of control. In addition, the T/C is 2 % of control and 13 % of control (dose: 75.0 mg/kg/injection, schedule: Q03DX004 (ip), vehicle: carboxymethylcellulose (CMC)); 16 % of control (dose: 88.0 mg/kg/injection, schedule: Q07DX002 (ip), vehicle: alkali diluted with saline); 45 % of control (dose: 88.0 mg/kg/injection, schedule: Q07DX002 (ip), vehicle: carboxymethylcellulose (CMC)); 1 % of control and 2 % of control (dose: 100.0 mg/kg/injection, schedule: Q01DX011 (im), vehicle: carboxymethylcellulose (CMC)); 2 % of control (dose: 100.0 mg/kg/injection, schedule: Q01DX011 (ip), vehicle: carboxymethylcellulose (CMC)); 2 % of control (dose: 100.0 mg/kg/injection, schedule: Q01DX011 (sc), vehicle: steriod suspending solution). Moreover, the T/C by setting is: (dose: 175.0 mg/kg/injection, schedule: Q07DX002 (ip), vehicle: carboxymethylcellulose (CMC)) 3 % of control and 4 % of control; (dose: 200.0 mg/kg/injection, schedule: Q01DX011 (im), vehicle: carboxymethylcellulose (CMC)) 11 % of control and 17 % of control; (dose: 200.0 mg/kg/injection, schedule: Q01DX011 (oral), vehicle: carboxymethylcellulose (CMC)) 1 % of control and 6 % of control; (dose: 200.0 mg/kg/injection, schedule: Q01DX011 (sc), vehicle: carboxymethylcellulose (CMC)) 17 % of control; (dose: 300.0 mg/kg/injection, schedule: Q03DX004 (ip), vehicle: carboxymethylcellulose (CMC)) 6 % of control; (dose: 350.0 mg/kg/injection, schedule: Q07DX002 (ip), vehicle: carboxymethylcellulose (CMC)) 1 % of control and 6 % of control. Also, the T/C is 3 % of control (dose: 600.0 mg/kg/injection, schedule: Q03DX004 (ip), vehicle: alkali diluted with saline) and 1 % of control (dose: 700.0 mg/kg/injection, schedule: Q07DX002 (ip), vehicle: carboxymethylcellulose (CMC)).
`CCCCN(C)N=Nc1ccc(CCC(=O)OCC)cc1`: the T/C reads like this: (dose: 62.5 mg/kg/injection, schedule: Q01DX011 (ip), vehicle: saline) 95 % of control; (dose: 125.0 mg/kg/injection, schedule: Q01DX011 (ip), vehicle: saline) 38 % of control; (dose: 250.0 mg/kg/injection, schedule: Q01DX011 (ip), vehicle: saline) 80 % of control.
Regarding `CCCn1cnc2c(SCc3ccccc3)nc(N)nc21`, the T/C is 43 % of control (dose: 7.81 mg/kg/injection, schedule: Q01DX011 (ip), vehicle: methylcellulose (MC)); 9 % of control (dose: 15.62 mg/kg/injection, schedule: Q01DX011 (ip), vehicle: methylcellulose (MC)); 37 % of control (dose: 31.25 mg/kg/injection, schedule: Q01DX011 (ip), vehicle: methylcellulose (MC)); 1 % of control (dose: 62.5 mg/kg/injection, schedule: Q01DX011 (ip), vehicle: methylcellulose (MC)).
Take `NC(Cc1cccs1)C(=O)O` (stereo unspecified): the T/C is, setting by setting: (dose: 125.0 mg/kg/injection, schedule: Q01DX011 (ip), vehicle: carboxymethylcellulose (CMC)) 71 % of control and 72 % of control; (dose: 125.0 mg/kg/injection, schedule: Q01DX011 (ip), vehicle: methylcellulose (MC)) 90 % of control; (dose: 250.0 mg/kg/injection, schedule: Q01DX011 (ip), vehicle: carboxymethylcellulose (CMC)) 91 % of control and 106 % of control; (dose: 250.0 mg/kg/injection, schedule: Q01DX011 (ip), vehicle: methylcellulose (MC)) 155 % of control; (dose: 500.0 mg/kg/injection, schedule: Q01DX011 (ip), vehicle: carboxymethylcellulose (CMC)) 65 % of control and 78 % of control; (dose: 500.0 mg/kg/injection, schedule: Q01DX011 (ip), vehicle: methylcellulose (MC)) 59 % of control. Besides, the T/C (dose: 1000.0 mg/kg/injection, schedule: Q01DX011 (ip), vehicle: carboxymethylcellulose (CMC)) is 96 % of control and 102 % of control; the T/C (dose: 1000.0 mg/kg/injection, schedule: Q01DX011 (ip), vehicle: methylcellulose (MC)) is 52 % of control.
